According to patent US7772263B2, “Compounds for the treatment of inflammatory disorders” (Schering Corporation, priority 2006, dated 2010):

Target: T1, purified catalytic domain of recombinant human TACE (rhTACEc) (Homo sapiens, UniProt P78536, N452Q/S266A)
T1 construct: rhTACEc, Residue 215 to 477 with two mutation (S266A and N4520) and a 6×His tail; 6xHis (C); made in house; host or cells: baculovirus/Hi5 insect cells
Test: TACE kinetic assay, cleavage of internally quenched fluorescent peptide substrate SPDL-3
Type: biochemical
Details: TACE inhibition, Table 1001; read-out: Ki Rating

T1 sequence (P78536 215-477 S266A/N452Q limits assumed): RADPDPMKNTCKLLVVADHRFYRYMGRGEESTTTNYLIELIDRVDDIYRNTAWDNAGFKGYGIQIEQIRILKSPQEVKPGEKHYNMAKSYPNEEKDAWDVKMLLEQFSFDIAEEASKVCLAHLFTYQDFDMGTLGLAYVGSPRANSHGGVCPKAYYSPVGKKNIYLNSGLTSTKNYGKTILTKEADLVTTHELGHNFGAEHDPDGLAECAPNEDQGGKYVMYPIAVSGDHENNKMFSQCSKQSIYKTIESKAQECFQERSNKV

SMILES | Ki [nM]
CCc1cc(C#C[C@]2(CN3Cc4ccc(OC)cc4C3=O)NC(=O)NC2=O)cc2sc(N)nc12 [Compound 919] | < 5
COc1ccc2c(c1)C(=O)N(C[C@@]1(C#Cc3cnccc3N)NC(=O)NC1=O)C2 [Compound 920] | < 5
O=C1NC(=O)[C@@](C#Cc2cc(F)cc(F)c2)(CN2Cc3ccc(OC(F)F)cc3C2=O)N1 [Compound 922] | < 5
COC(=O)c1ncccc1C#C[C@]1(CN2Cc3ccc(OC)cc3C2=O)NC(=O)NC1=O [Compound 924] | < 5
COc1ccc2c(c1)C(=O)N(C[C@@]1(C#Cc3cccnc3C(=O)O)NC(=O)NC1=O)C2 [Compound 925] | < 5
COc1ccc2c(c1)C(=O)N(C[C@@]1(C#Cc3ccncc3N)NC(=O)NC1=O)C2 [Compound 926] | 5 to 25
COc1ccc2c(c1)C(=O)N(C[C@@]1(C#Cc3ncccc3N)NC(=O)NC1=O)C2 [Compound 928] | < 5
COc1ccc2c(c1)C(=O)N(C[C@@]1(C#Cc3cccnc3N)NC(=O)NC1=O)C2 [Compound 930] | < 5
COc1ccc2c(c1)C(=O)N(C[C@@]1(C#Cc3cccc(C(C)C)c3)NC(=O)NC1=O)C2 [Compound 931] | < 5
COc1ccc2c(c1)C(=O)N(C[C@@]1(C#Cc3cnc4ncccc4c3)NC(=O)NC1=O)C2 [Compound 932] | < 5
COc1ccc2c(c1)C(=O)N(C[C@@]1(C#Cc3ccc4ncccc4c3)NC(=O)NC1=O)C2 [Compound 933] | < 5
COc1ccc2c(c1)C(=O)N(C[C@@]1(C#Cc3cc(C(F)(F)F)cc(C(F)(F)F)c3)NC(=O)NC1=O)C2 [Compound 934] | < 5
COc1ccc2c(c1)C(=O)N(C[C@@]1(C#Cc3ccc(OC(F)F)cc3)NC(=O)NC1=O)C2 [Compound 937] | < 5
COc1ccc2c(c1)C(=O)N(C[C@@]1(C#Cc3cc(F)c(Cl)c(F)c3)NC(=O)NC1=O)C2 [Compound 938] | < 5
COc1ccc2c(c1)C(=O)N(C[C@@]1(C#Cc3ccc(C#N)c(F)c3)NC(=O)NC1=O)C2 [Compound 939] | < 5
COc1ccc2c(c1)C(=O)N(C[C@@]1(C#Cc3ccc4ccn(C)c4n3)NC(=O)NC1=O)C2 [Compound 940] | < 5
COc1ccc2c(c1)C(=O)N(C[C@@]1(C#Cc3cnc4c(ccn4C)c3)NC(=O)NC1=O)C2 [Compound 941] | < 5
COc1ccc2c(c1)C(=O)N(C[C@@]1(C#Cc3cnc4nc(O)ccc4c3)NC(=O)NC1=O)C2 [Compound 942] | < 5
O=C1NC(=O)[C@@](C#Cc2cccnc2)(CN2Cc3ccc(OC(F)F)cc3C2=O)N1 [Compound 943] | < 5
COc1ccc2c(c1)C(=O)N(C[C@@]1(C#Cc3cnc4nc(N)c(C#N)cc4c3)NC(=O)NC1=O)C2 [Compound 944] | < 5
COc1ccc2c(c1)C(=O)N(C[C@@]1(C#Cc3cccc(S(N)(=O)=O)c3)NC(=O)NC1=O)C2 [Compound 945] | < 5
COc1ccc2c(c1)C(=O)N(C[C@@]1(C#Cc3ccc(S(N)(=O)=O)cc3)NC(=O)NC1=O)C2 [Compound 946] | < 5

SMILES | Ki [nM]
COc1ccc2c(c1)C(=O)N(C[C@@]1(C#Cc3ccccc3S(N)(=O)=O)NC(=O)NC1=O)C2 [Compound 947] | < 5
COc1ccc2c(c1)C(=O)N(C[C@@]1(C#Cc3cn(C)c(C)n3)NC(=O)NC1=O)C2 [Compound 948] | < 5
COc1ccc2c(c1)C(=O)N(C[C@@]1(C#Cc3cnc4[nH]ccc4c3)NC(=O)NC1=O)C2 [Compound 949] | < 5
COc1ccc2c(c1)C(=O)N(C[C@@]1(C#Cc3cc(OC)cc4sc(N)nc34)NC(=O)NC1=O)C2 [Compound 950] | < 5
COc1ccc2c(c1)C(=O)N(C[C@@]1(C#Cc3ccc4nccc(OC)c4c3)NC(=O)NC1=O)C2 [Compound 951] | < 5
COc1ccc2c(c1)C(=O)N(C[C@@]1(C#Cc3nccc4cc[nH]c34)NC(=O)NC1=O)C2 [Compound 952] | < 5
COc1ccc2c(c1)C(=O)N(C[C@@]1(C#Cc3cncc4cc[nH]c34)NC(=O)NC1=O)C2 [Compound 953] | < 5
CNC(=O)c1ccc(C#C[C@]2(CN3Cc4ccc(OC)cc4C3=O)NC(=O)NC2=O)o1 [Compound 954] | < 5
COc1ccc2c(c1)C(=O)N(C[C@@]1(C#Cc3cncc4cccnc34)NC(=O)NC1=O)C2 [Compound 955] | < 5
COC(=O)c1ccc2cncc(C#C[C@]3(CN4Cc5ccc(OC)cc5C4=O)NC(=O)NC3=O)c2n1 [Compound 956] | < 5
COc1ccc2c(c1)C(=O)N(C[C@@]1(C#Cc3cncc4ccc(C(N)=O)nc34)NC(=O)NC1=O)C2 [Compound 957] | < 5
CNC(=O)c1ccc2cncc(C#C[C@]3(CN4Cc5ccc(OC)cc5C4=O)NC(=O)NC3=O)c2n1 [Compound 958] | < 5
COc1ccc2c(c1)C(=O)N(C[C@@]1(C#Cc3cncc4ccc(C(=O)O)nc34)NC(=O)NC1=O)C2 [Compound 959] | < 5
COc1ccc2c(c1)C(=O)N(C[C@@]1(C#Cc3cnc4[nH]cnc4c3)NC(=O)NC1=O)C2 [Compound 960] | < 5
COc1ccc2c(c1)C(=O)N(C[C@@]1(C#Cc3cnc4[nH]c(C)nc4c3)NC(=O)NC1=O)C2 [Compound 961] | < 5
COc1ccc2c(c1)C(=O)N(C[C@@]1(C#Cc3cc4nc[nH]c4nc3C)NC(=O)NC1=O)C2 [Compound 962] | < 5
COc1ccc2c(c1)C(=O)N(CC1(C#Cc3ccc4ncsc4c3)NC(=O)NC1=O)C2 (centres unmarked) [Compound 963] | < 5
COc1ccc2c(c1)C(=O)N(C[C@]1(C#Cc3ccccc3C(C)C)NC(=O)NC1=O)C2 [Compound 964] | 5 to 25
COc1ccc2c(c1)C(=O)N(C[C@]1(C#Cc3nc4ccccc4s3)NC(=O)NC1=O)C2 [Compound 965] | 25 to 100
COc1ccc2c(c1)C(=O)N(C[C@]1(C#Cc3cnc4ncccc4c3)NC(=O)NC1=O)C2 [Compound 966] | 25 to 100
COc1ccc2c(c1)C(=O)N(C[C@]1(C#Cc3cccc(C(C)C)c3)NC(=O)NC1=O)C2 [Compound 967] | 25 to 100
COc1ccc2c(c1)C(=O)N(C[C@]1(C#Cc3ccc4ncccc4c3)NC(=O)NC1=O)C2 [Compound 968] | 25 to 100

Second part, the compound after the results:

Ki [nM] | SMILES
< 5 | O=C1NC(=O)C(C#Cc2cc(F)cc(F)c2)(CN2Cc3ccc(OC(F)F)cc3C2=O)N1 (centres unmarked) [Compound 969]
> 100 | O=C1NC(=O)[C@](C#Cc2cc(F)cc(F)c2)(CN2Cc3ccc(OC(F)F)cc3C2=O)N1 [Compound 970]
< 5 | O=C1NC(=O)C(C#Cc2ccc(F)cc2F)(CN2Cc3ccc(OC(F)F)cc3C2=O)N1 (centres unmarked) [Compound 971]
< 5 | COc1ccc2c(c1)C(=O)N(C[C@@]1(C#Cc3ccc(S(=O)(=O)O)cc3)NC(=O)NC1=O)C2 [Compound 973]
< 5 | COc1ccc2c(c1)C(=O)N(C[C@@]1(C#Cc3ccccc3)NC(=O)NC1=O)C2 [Compound 1002]
< 5 | O=C1NC(=O)[C@@](C#Cc2cc(F)cc(F)c2)(CN2Cc3ccc(Cl)cc3C2=O)N1 [Compound 1003B]
< 5 | O=C1NC(=O)[C@@](C#Cc2cccc(F)c2)(CN2Cc3ccc(Cl)cc3C2=O)N1 [Compound 1003C]
< 5 | COc1ccc2c(c1)C(=O)N(C[C@@]1(C#Cc3cccnc3C)NC(=O)NC1=O)C2 [Compound 1003]
< 5 | O=C1NC(=O)[C@@](C#Cc2cccnc2)(CN2Cc3ccc(Cl)cc3C2=O)N1 [Compound 1004]
< 5 | COc1ccc2c(c1)C(=O)N(C[C@@]1(C#Cc3cncc(C)c3)NC(=O)NC1=O)C2 [Compound 1005]

Same assay, conditions: TACE; class letters A-D; read-out: Ki Rating

Ki [nM] | SMILES
< 5 | COc1ccc2c(c1)C(=O)N(C[C@@]1(C#Cc3cncc(Cl)c3)NC(=O)NC1=O)C2 [Compound 1006]
< 5 | COc1ccc2c(c1)C(=O)N(C[C@@]1(C#Cc3ccc(F)cc3C)NC(=O)NC1=O)C2 [Compound 1007]
< 5 | COc1ccc2c(c1)C(=O)N(C[C@@]1(C#Cc3ccc4nccnc4c3)NC(=O)NC1=O)C2 [Compound 1008]
< 5 | COc1ccc2c(c1)C(=O)N(C[C@@]1(C#Cc3ccc4nc(N)[nH]c4c3)NC(=O)NC1=O)C2 [Compound 1009]
< 5 | COc1ccc2c(c1)C(=O)N(C[C@@]1(C#Cc3ccc4c(c3)COC4=O)NC(=O)NC1=O)C2 [Compound 1010]
< 5 | COc1ccc2c(c1)C(=O)N(C[C@@]1(C#Cc3ccc4nc(C)[nH]c4c3)NC(=O)NC1=O)C2 [Compound 1011]
< 5 | COc1ccc2c(c1)C(=O)N(C[C@@]1(C#Cc3ccc4[nH]cnc4c3)NC(=O)NC1=O)C2 [Compound 1012]
< 5 | COc1ccc2c(c1)C(=O)N(C[C@@]1(C#Cc3cnc4[nH]c(=O)[nH]c4c3)NC(=O)NC1=O)C2 [Compound 1013]
< 5 | COc1ccc2c(c1)C(=O)N(C[C@@]1(C#Cc3cccc4[nH]ncc34)NC(=O)NC1=O)C2 [Compound 1014]
< 5 | COc1ccc2c(c1)C(=O)N(C[C@@]1(C#Cc3cccc4cn[nH]c34)NC(=O)NC1=O)C2 [Compound 1015]
< 5 | COc1ccc2c(c1)C(=O)N(C[C@@]1(C#Cc3ccc4[nH]c(=O)sc4c3)NC(=O)NC1=O)C2 [Compound 1016]
< 5 | COc1ccc2c(c1)C(=O)N(C[C@@]1(C#Cc3ccc4c(c3)sc(=N)n4C)NC(=O)NC1=O)C2 [Compound 1017]
< 5 | COc1ccc2c(c1)C(=O)N(C[C@@]1(C#Cc3cccnc3C#N)NC(=O)NC1=O)C2 [Compound 1018]
< 5 | COc1ccc2c(c1)C(=O)N(C[C@@]1(C#Cc3ccc4c(c3)C(=O)NC4=O)NC(=O)NC1=O)C2 [Compound 1019]
> 100 | COc1ccc2c(c1)C(=O)N(C[C@]1(C#Cc3ccc(SC(F)(F)F)cc3)NC(=O)NC1=O)C2 [Compound 1036]
< 5 | O=C1NC(=O)[C@@](C#Cc2ccc(F)cc2)(CN2Cc3ccc(F)cc3C2=O)N1 [Compound 1037]

Same assay, conditions: rhTACEc 70 pM, 30 μM SPDL-3, 90 min pre-incubation at 25° C.; read-out: Ki (nM), TACE inhibitory activity

Ki [nM] | SMILES
0.56 | COc1ccc2c(c1)C(=O)N(C[C@@]1(C#Cc3cccnc3N)NC(=O)NC1=O)C2 [Compound 930]
0.12 | COc1ccc2c(c1)C(=O)N(C[C@@]1(C#Cc3ccc4scnc4c3)NC(=O)NC1=O)C2 [Compound 972]
0.11 | COc1ccc2c(c1)C(=O)N(C[C@@]1(C#Cc3cccnc3C)NC(=O)NC1=O)C2 [Compound 1003]
1.33 | COc1ccc2c(c1)C(=O)N(C[C@@]1(C#Cc3ccc4nc(N)[nH]c4c3)NC(=O)NC1=O)C2 [Compound 1009]
